The results in this text go back to paper PMC6150172, “Synthesis of Oxadiazole-Thiadiazole Hybrids and Their Anticandidal Activity” (Molecules : A Journal of Synthetic Chemistry and Natural …, 2017).

One series is described as follows: MTT cytotoxicity test. Type of series: cell-based. To be noted: mouse, NIH/3T3 mouse embryonic fibroblast cells, NIH/3T3 cell line, read-out: IC50 (cytotoxic activity). As for the experimental part:
The MTT assay was carried out to determine the cytotoxicity of the synthesized compounds as previously reported in [21]. NIH/3T3 mouse embryonic fibroblast cells (ATCC® CRL-1658™, London, UK) were incubated according to the supplier’s references and seeded at 1 × 10^4 cells into each well of 96-well plates. After this process, cells were treated with the compounds at concentrations ranging from 800 µg/mL to 0.78 µg/mL. By means of the following formula, percent inhibition was evaluated for each concentration.

In series [1] the test system is ergosterol biosynthesis in C. krusei. The series can be described thus: Ergosterol level quantification by LC-MS-MS in C. krusei. To be noted: Pichia kudriavzevii, mean ± SD. Type of series: cell-based. As for the experimental part: The ergosterol level was determined using the method described by Breivik and Owades with adjustments according to [2]. C. krusei was inoculated with Sabouraud dextrose broth (Difco) supplemented with compounds 6e, 6k, 6r and the positive control, ketoconazole. The cultures were incubated, and the stationary-phase cells were harvested. After the addition of 25% alcoholic potassium hydroxide solution, cell suspensions were separated and incubated. Sterols were extracted by sterile distilled water and chloroform, and then the extract was injected into the LC-MS-MS system (Shimadzu LCMS 8040, Kyoto, Japan). The ergosterol quantity in the negative control samples was considered as 100%. All concentrations were analysed in quadruplicate, and the results were presented as mean ± standard deviation (SD).

A further series concerns four Candida species. The series can be described thus: Antifungal broth microdilution assay, four Candida species taken together. It is filed as cell-based. To be noted: range over four Candida strains. As for the experimental part: (§1) The anticandidal effect of compounds 6a–6s were screened in accord with the EUCAST definitive (EDef 7.1) method. Ketoconazole was employed as a reference drug. The in vitro growth inhibitory activity of the compounds were tested against C. albicans (ATCC 24433), C. glabrata (ATCC 90030), C. krusei (ATCC 6258) and C. parapsilosis (ATCC 22019). The results were obtained as MIC values and MIC readings were accomplished twice for each chemical agent. After incubating overnight at 37 °C, the fungal strains were sustained in Roswell Park Memorial Institute (RPMI) medium.
(§2) Adjustment of the inoculum density to a 0.5 McFarland turbidity standard was carried out by using a spectrophotometer. The resulting inoculum suspension contained 0.5 × 10^5–2.5 × 10^5 cfu/mL for fungi. The two-fold serial dilutions technique were applied and the test was carried out in Mueller–Hinton broth and RPMI at pH7 and the test was performed for medium at pH7. The last well on the microplates containing only inoculated broth and the last well with no growth of microorganism represent controls and the MIC50 in μg/mL, respectively. DMSO was used as solvent. Further dilutions of the compounds and standard drugs in the RPMI medium were prepared in the required quantities at contcentrations of 800, 400, 200, 100, 50, 25, 12.5, 6.25, 3.125, 1.5625 and 0.78 µg/mL. After a 24 h incubation of the completed plates, resazurin (20 µg/mL) was added into each well in order to observe the fungal growth. […] Each experiment in antifungal assay was performed twice.
A general note: Dilution methods test growth across graded concentrations, often in twofold steps.

The next series has as its system C. albicans (ATCC 24433). Nature of the series: Antifungal broth microdilution assay (EUCAST EDef 7.1), C. albicans. It is filed as cell-based. To be noted: Candida albicans, ATCC24433, read-out: Minimum inhibitory concentration (MIC50). As for the experimental part: as §1, §2
For another series, the system named is C. glabrata (ATCC 90030). The series can be described thus: Antifungal broth microdilution assay (EUCAST EDef 7.1), C. glabrata. It is filed as cell-based. To be noted: Nakaseomyces glabratus, ATCC90030, read-out: Minimum inhibitory concentration (MIC50). The method, then: as §1, §2
The subject of series [2] is C. parapsilosis (ATCC 22019). Nature of the series: Antifungal broth microdilution assay (EUCAST EDef 7.1), C. parapsilosis. To be noted: Lodderomyces parapsilosis, ATCC22019; C. parapsilopsis; read-out: Minimum inhibitory concentration (MIC50). Type of series: cell-based. The method, then: as §1, §2
The next series relates to C. krusei (ATCC 6258). The series can be described thus: Antifungal broth microdilution assay (EUCAST EDef 7.1), C. krusei. Type of series: cell-based. To be noted: Pichia kudriavzevii, ATCC6258, read-out: Minimum inhibitory concentration (MIC50). As for the experimental part:
as §1, §2

Values after ≈ are worked out from the molar mass of the structure shown.

Usually IC50 stands for the point on the concentration scale where inhibition reaches its midpoint. As a reminder, the inhibition is the share of the control response that was lost under treatment. A low value points to a weak effect. For orientation: melting point means the temperature, or range, at which the solid turns liquid. The compound `O=C(CSc1nnc(CCSc2nnc(NC3CCCCC3)s2)o1)c1ccc([N+](=O)[O-])cc1` [Compound 6e, 2-[[5-[2-[[5-(Cyclohexylamino)-1,3,4-thiadiazol-2-yl]thio]ethyl]-1,3,4-oxadiazol-2-yl]thio]-1-(4-nitrophenyl)ethan-1-one] showed a melting point of 144 °C. Further, in “MTT cytotoxicity test”, the IC50 was greater than 500 µg/mL. Further, in series [1], testing at 0.78 µg/mL gave an inhibition of 76.5 ± 3.67%, the inhibition at 1.56 µg/mL is 82.9 ± 4.72% and the inhibition at 3.12 µg/mL was 88.6 ± 4.52%. The “minimum inhibitory concentration (MIC), range over all tested fungi” value with four Candida species lay in the range of 0.78 to 3.12 µg/mL. Also, the MIC50 in the series on C. albicans (ATCC 24433) amounted to 1.56 µg/mL (≈ 3.08 µM). The MIC50 in the series with C. glabrata (ATCC 90030) stood at 1.56 µg/mL (≈ 3.08 µM). Also, the MIC50 in series [2] is 0.78 µg/mL (≈ 1.54 µM). The MIC50 in the series on C. krusei (ATCC 6258) turned out to be 0.78 µg/mL (≈ 1.54 µM).

In turn, `O=C(CSc1nnc(CCSc2nnc(NC3CCCCC3)s2)o1)Nc1ccc([N+](=O)[O-])cc1` [Compound 6k, 2-[[5-[2-[[5-(Cyclohexylamino)-1,3,4-thiadiazol-2-yl]thio]ethyl]-1,3,4-oxadiazol-2-yl]thio]-N-(4-nitrophenyl)acetamide] showed a melting point of 149 °C. In “MTT cytotoxicity test”, the IC50 was greater than 500 µg/mL. Further, in series [1], at 0.78 µg/mL the inhibition was 58.7 ± 2.41%, the inhibition at 1.56 µg/mL was 74.7 ± 3.26% and 3.12 µg/mL produced 81.3 ± 4.19% inhibition. Moreover, the “minimum inhibitory concentration (MIC), range over all tested fungi” value in the series with four Candida species is 0.78 to 3.12 µg/mL. The MIC50 with C. albicans (ATCC 24433) amounted to 1.56 µg/mL (≈ 2.99 µM). Moreover, the MIC50 in the series with C. glabrata (ATCC 90030) stood at 1.56 µg/mL (≈ 2.99 µM). For the same compound, the MIC50 in series [2] worked out at 1.56 µg/mL (≈ 2.99 µM). Moreover, the MIC50 in the series with C. krusei (ATCC 6258) amounted to 1.56 µg/mL (≈ 2.99 µM).

On to `O=C(CSc1nnc(CCSc2nnc(NC3CCCCC3)s2)o1)Nc1nc2ccc([N+](=O)[O-])cc2s1` [Compound 6r, 2-[[5-[2-[[5-(Cyclohexylamino)-1,3,4-thiadiazol-2-yl]thio]ethyl]-1,3,4-oxadiazol-2-yl]thio]-N-(6-nitrobenzothiazol-2-yl)acetamide], for which the IC50 in “MTT cytotoxicity test” worked out at 406 ± 9.36 µg/mL (≈ 702 µM). Further, the inhibition at 0.78 µg/mL in series [1] worked out at 61.4 ± 1.88%. Moreover, the inhibition at 1.56 µg/mL in series [1] stood at 70.6 ± 4.23%. Moreover, 3.12 µg/mL produced 80.2 ± 3.7% inhibition in series [1]. In the series with four Candida species, the “minimum inhibitory concentration (MIC), range over all tested fungi” value was in the range of 0.78 to 3.12 µg/mL. Also, the MIC50 with C. albicans (ATCC 24433) was 3.12 µg/mL (≈ 5.39 µM); in the series with C. glabrata (ATCC 90030), 3.12 µg/mL (≈ 5.39 µM); in series [2], 1.56 µg/mL (≈ 2.7 µM); in the series with C. krusei (ATCC 6258), 1.56 µg/mL (≈ 2.7 µM).
